Experimental findings from patent US11345710B2, “Imidazo[1,2-b]pyrimido[4,5-d]pyridazin-5(6H)-ones and the use thereof” (IMPACT THERAPEUTICS (SHANGHAI), INC, priority 2017, dated 2022) are described below.

Read-outs that look alike come from different tables or passages of the source.

The test system of one assay is LoVo cells. Description: MTT based cell viability assay on LoVo cells. Conditions: for IC50: Homo sapiens, 72 h, read-out: IC50, growth inhibition on LoVo cells.
A further assay concerns NCI-H1299 cells. In words: MTT based cell viability assay on NCI-H1299 cells. The note with it: for IC50: Homo sapiens, read-out: IC50, growth inhibition on NCI-H1299 cells. Put shortly: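 NCI-H1299 cells (1000/well) were plated overnight, then given a seven-point serial compound dilution plus DMSO control for 3 d at 37 °C, 5% CO2. Viability was read by MTT (0.5 mg/mL, 4 h, DMSO-solubilised) at 552/630/690 nm. IC50 came from a sigmoidal fit of survival versus concentration.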

The next assay deals with Wee1 kinase (h) (Homo sapiens, UniProt P30291). In words: Wee1 kinase (h) detection method, [γ-33P]-ATP filter assay. Type of assay: biochemical. The note with it: for Inh. (%) of Wee1 kinase: 10 μM ATP, 40 minutes at room temperature. Summed up:
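Radiometric filter-binding assay with human Wee1 in 20 mM Tris/HCl pH 8.5, 0.2 mM EDTA, 500 μM peptide substrate, 10 mM Mg acetate, 10 μM [γ-33P]-ATP; compounds at final 1, 0.1 or 0.01 μM. Reaction 40 min at room temperature, stopped with 0.5% phosphoric acid, spotted on P30 filtermat, scintillation counted, duplicates.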

The mark [1] stands for this setting: 72 h, NCI-H1299 cells, 3 d, MTT.

Sequence of Wee1 kinase (h) (P30291 whole entry): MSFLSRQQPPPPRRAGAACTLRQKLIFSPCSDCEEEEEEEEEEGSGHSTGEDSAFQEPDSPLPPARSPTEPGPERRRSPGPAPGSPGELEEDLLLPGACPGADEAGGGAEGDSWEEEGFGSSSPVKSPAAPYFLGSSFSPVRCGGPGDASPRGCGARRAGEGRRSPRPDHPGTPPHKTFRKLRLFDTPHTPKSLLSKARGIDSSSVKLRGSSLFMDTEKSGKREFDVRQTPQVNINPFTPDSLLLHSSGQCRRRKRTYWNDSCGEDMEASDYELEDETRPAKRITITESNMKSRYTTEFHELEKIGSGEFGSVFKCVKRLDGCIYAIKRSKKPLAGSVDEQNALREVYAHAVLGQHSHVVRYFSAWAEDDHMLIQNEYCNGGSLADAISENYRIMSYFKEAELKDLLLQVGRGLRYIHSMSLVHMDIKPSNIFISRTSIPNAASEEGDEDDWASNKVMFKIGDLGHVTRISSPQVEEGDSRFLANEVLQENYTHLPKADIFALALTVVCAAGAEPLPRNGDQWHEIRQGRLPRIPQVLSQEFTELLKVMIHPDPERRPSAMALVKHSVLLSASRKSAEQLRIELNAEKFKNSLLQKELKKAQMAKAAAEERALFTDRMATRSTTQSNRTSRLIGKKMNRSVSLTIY

One may read the IC50 as the concentration that gives 50% inhibition. `CN1CCN(c2ccc(Nc3ncc4c(=O)n(-c5c(F)cccc5Cl)n5ccnc5c4n3)cc2)CC1` [Example 7, 6-(2-chloro-6-fluorophenyl)-2-((4-(4-methylpiperazin-1-yl)phenyl)amino)imidazo[1,2-b]pyrimido[4,5-d]pyridazin-5(6H)-one]: the IC50 was 831 nM with LoVo cells (LoVo cells, 3 d, MTT) and 781 nM in the assay on NCI-H1299 cells (setting [1]). At Wee1 kinase (h) (C 1 μm), the “Inh. (%) of Wee1 kinase” value was 92%.
Taken in the same sequence, the figures for `Cc1cc(Nc2ncc3c(=O)n(-c4c(F)cccc4F)n4ccnc4c3n2)cc(Cl)c1N1CCN(C)CC1` [Example 20, 6-(2,6-difluorophenyl)-2-((3-chloro-5-methyl-4-(4-methylpiperazin-1-yl)phenyl)amino) imidazo[1,2-b]pyrimido[4,5-d]pyridazin-5(6H)-one] were 364 nM, 597 nM and 77%.
With `CN(C)C1CCN(c2ccc(Nc3ncc4c(=O)n(-c5c(Cl)cccc5Cl)n5ccnc5c4n3)cc2Cl)CC1` [Example 35, 6-(2,6-dichlorophenyl)-2-((3-chloro-4-(4-(dimethylamino)piperidin-1-yl)phenyl)amino)imidazo[1,2-b]pyrimido[4,5-d]pyridazin-5(6H)-one], the IC50 with LoVo cells (LoVo) is 302 nM; in the assay with NCI-H1299 cells (NCI-H1299, 72 h), 182 nM. The “Inh. (%) of Wee1 kinase” value at Wee1 kinase (h) (C 0.01 μm) was 4%; at Wee1 kinase (h) (C 1 μm), 96%.
As for `Cc1cc(Nc2ncc3c(=O)n(-c4c(F)cccc4Cl)n4ccnc4c3n2)cc(F)c1N1CCC(N(C)C)CC1` [Example 25, 6-(2-chloro-6-fluorophenyl)-2-((3-fluoro-5-methyl-4-(4-(dimethylamino)piperidin-1-yl)phenyl)amino)imidazo[1,2-b]pyrimido[4,5-d]pyridazin-5(6H)-one], the half-inhibitory concentration (IC50) in the assay with LoVo cells (LoVo cells, 3 d, MTT) came out at 144 nM; in the assay on NCI-H1299 cells (setting [1]) it was 249 nM. The results for the “Inh. (%) of Wee1 kinase” value at Wee1 kinase (h) (C 0.01 μm) and at Wee1 kinase (h) (C 1 μm) were 10% and 96%, respectively.
As to `Cc1cc(Nc2ncc3c(=O)n(-c4c(Cl)cccc4Cl)n4ccnc4c3n2)cc(F)c1N1CCN(C)CC1` [Example 28, 6-(2,6-dichlorophenyl)-2-((3-fluoro-5-methyl-4-(4-methylpiperazin-1-yl)phenyl)amino)imidazo[1,2-b]pyrimido[4,5-d]pyridazin-5(6H)-one], the IC50 came to 266 nM with LoVo cells (LoVo) and 295 nM in the assay with NCI-H1299 cells (NCI-H1299, 72 h). The results for the “Inh. (%) of Wee1 kinase” value at Wee1 kinase (h) (C 0.01 μm) and on Wee1 kinase (h) (C 1 μm) were 15% and 95%, respectively.
Take `Cc1cc(Nc2ncc3c(=O)n(-c4c(C)cccc4F)n4ccnc4c3n2)cc(C)c1N1CCN(C)CC1` [Example 15, 6-(2-fluoro-6-methylphenyl)-2-((3,5-dimethyl-4-(4-methylpiperazin-1-yl)phenyl)amino) imidazo[1,2-b]pyrimido[4,5-d]pyridazin-5(6H)-one]: the IC50 stood at 832 nM in the assay on LoVo cells (LoVo cells, 3 d, MTT) and 904 nM in the assay on NCI-H1299 cells (setting [1]). Further, the “Inh. (%) of Wee1 kinase” value on Wee1 kinase (h) (C 1 μm) was 87%.
On to `Cc1cc(Nc2ncc3c(=O)n(-c4c(C)cccc4Cl)n4ccnc4c3n2)cc(C)c1N1CCN(C)CC1` [Example 17, 6-(2-chloro-6-methylphenyl)-2-((3,5-dimethyl-4-(4-methylpiperazin-1-yl)phenyl)amino)imidazo[1,2-b]pyrimido[4,5-d]pyridazin-5(6H)-one], for which the half-inhibitory concentration (IC50) was 902 nM in the assay on LoVo cells (LoVo cells, 3 d, MTT) and 802 nM with NCI-H1299 cells (setting [1]). Moreover, the “Inh. (%) of Wee1 kinase” value turned out to be 5% at Wee1 kinase (h) (C 0.01 μm), 56% at Wee1 kinase (h) (C 0.1 μm) and 96% at Wee1 kinase (h) (C 1 μm).
For `Cc1cn2c(n1)c1nc(Nc3ccc(N4CCN(C)CC4)c(Cl)c3)ncc1c(=O)n2-c1c(Cl)cccc1Cl` [Example 57, 6-(2,6-dichlorophenyl)-2-((3-chloro-4-(4-methylpiperazin-1-yl)phenyl)amino)-9-methylimidazo[1,2-b]pyrimido[4,5-d]pyridazin-5(6H)-one], the IC50 amounted to 269 nM in the assay with LoVo cells (LoVo cells, 3 d, MTT) and 173 nM in the assay on NCI-H1299 cells (setting [1]). In addition, the results for the “Inh. (%) of Wee1 kinase” value on Wee1 kinase (h) (C 0.01 μm) and on Wee1 kinase (h) (C 1 μm) were 12% and 93%, respectively.
In the case of `Cc1cc(Nc2ncc3c(=O)n(-c4c(F)cccc4Cl)n4ccnc4c3n2)cc(C)c1N1CCN(C)CC1` [Example 11, 6-(2-chloro-6-fluorophenyl)-2-((3,5-dimethyl-4-(4-methylpiperazin-1-yl)phenyl)amino)imidazo[1,2-b]pyrimido[4,5-d]pyridazin-5(6H)-one], the IC50 came out at 266 nM with LoVo cells (LoVo cells, 3 d, MTT) and 555 nM with NCI-H1299 cells (setting [1]). The “Inh. (%) of Wee1 kinase” value at Wee1 kinase (h) (C 1 μm) is given as 93%.
Turning to `Cc1cc(Nc2ncc3c(=O)n(-c4c(C)cccc4F)n4ccnc4c3n2)ccc1N1CCN(C)CC1` [Example 14, 6-(2-fluoro-6-methylphenyl)-2-((3-methyl-4-(4-methylpiperazin-1-yl)phenyl)amino)imidazo[1,2-b]pyrimido[4,5-d]pyridazin-5(6H)-one], the IC50 worked out at 871 nM with LoVo cells (LoVo cells, 3 d, MTT) and 587 nM in the assay with NCI-H1299 cells (setting [1]). Besides, the “Inh. (%) of Wee1 kinase” value at Wee1 kinase (h) (C 1 μm) stood at 93%.
Turning to `CN1CCN(c2ccc(Nc3ncc4c(=O)n(-c5c(Cl)cccc5Cl)n5ccnc5c4n3)cc2)CC1` [Example 1, 6-(2,6-dichlorophenyl)-2-((4-(4-methylpiperazin-1-yl)phenyl)amino)imidazo[1,2-b]pyrimido[4,5-d]pyridazin-5(6H)-one], the IC50 in the assay on LoVo cells (LoVo) was 524 nM; with NCI-H1299 cells (NCI-H1299, 72 h) it was 916 nM. In addition, in the assay with LoVo cells (MTT method), the “inhibitory effect on the growth of LoVo cells (summary in words)” value was “inhibitory effect”. For the same compound, the “inhibitory effect on the growth of NCI-H1299 cell (summary in words)” value in the assay on NCI-H1299 cells (MTT method) is listed as “inhibitory effect”. In addition, at Wee1 kinase (h), the “inhibitory effect on the activity of Wee1 kinase (summary in words)” value is given as “good inhibitory effect”. Moreover, the “Inh. (%) of Wee1 kinase” value on Wee1 kinase (h) (C 0.01 μm) came out at 11%; on Wee1 kinase (h) (C 0.1 μm), 75%; on Wee1 kinase (h) (C 1 μm), 94%.
With `CN(C)C1CCN(c2ccc(Nc3ncc4c(=O)n(-c5c(Cl)cccc5Br)n5ccnc5c4n3)cc2Cl)CC1` [Example 48, 6-(2-bromo-6-chlorophenyl)-2-((3-chloro-4-(4-(dimethylamino)piperidin-1-yl)phenyl)amino)imidazo[1,2-b]pyrimido[4,5-d]pyridazin-5(6H)-one], the IC50 turned out to be 227 nM with LoVo cells (LoVo cells, 3 d, MTT) and 281 nM in the assay with NCI-H1299 cells (setting [1]). In addition, the “Inh. (%) of Wee1 kinase” value on Wee1 kinase (h) (C 0.01 μm) was 23%; at Wee1 kinase (h) (C 1 μm) it was 93%.
Take `Cc1cc(Nc2ncc3c(=O)n(-c4c(Cl)cccc4Cl)n4ccnc4c3n2)cc2c1CCN(C)C2` [Example 44, 6-(2,6-dichlorophenyl)-2-((2,5-dimethyl-1,2,3,4-tetrahydroisoquinolin-7-yl)amino)imidazo[1,2-b]pyrimido[4,5-d]pyridazin-5(6H)-one]: the IC50 in the assay on LoVo cells (LoVo) came out at 371 nM; with NCI-H1299 cells (NCI-H1299, 72 h) it was 164 nM. Moreover, the “Inh. (%) of Wee1 kinase” value on Wee1 kinase (h) (C 0.01 μm) is listed as 4%.
With `Cc1cc(Nc2ncc3c(=O)n(-c4c(Cl)cccc4Br)n4ccnc4c3n2)ccc1N1CCN(C)CC1` [Example 46, 6-(2-bromo-6-chlorophenyl)-2-((3-methyl-4-(4-methylpiperazin-1-yl)phenyl)amino)imidazo[1,2-b]pyrimido[4,5-d]pyridazin-5(6H)-one], the IC50 was determined as 242 nM with LoVo cells (LoVo cells, 3 d, MTT) and 271 nM in the assay on NCI-H1299 cells (setting [1]). Also, the “Inh. (%) of Wee1 kinase” value on Wee1 kinase (h) (C 0.01 μm) was 17%; on Wee1 kinase (h) (C 1 μm) it was 92%.
For `Cc1cc(Nc2ncc3c(=O)n(-c4c(Cl)cccc4Cl)n4ccnc4c3n2)cc(F)c1N1CCC(N(C)C)CC1` [Example 37, 6-(2,6-dichlorophenyl)-2-((3-fluoro-5-methyl-4-(4-(dimethylamino)piperidin-1-yl)phenyl)amino)imidazo[1,2-b]pyrimido[4,5-d]pyridazin-5(6H)-one], the IC50 came out at 291 nM in the assay with LoVo cells (LoVo) and 187 nM in the assay with NCI-H1299 cells (NCI-H1299, 72 h). The results for the “Inh. (%) of Wee1 kinase” value at Wee1 kinase (h) (C 0.01 μm) and at Wee1 kinase (h) (C 1 μm) were 13% and 96%, respectively.
